Bounds are passed on as bounds.

The values below come from a melting point compilation (Tetko et al.; mined from patent text by program, amines drawn as free bases though some values may be those of a salt).

`NC(=O)CCC1CN(c2ccc3c(c2)OCC2CN(C(=O)CO)CCN32)C(=O)O1` (stereo not given) displayed a melting point of 115 to 118 °C.

With `COC(=O)c1cc(Nc2ccccc2)c(Nc2ccc(OC)cc2)cc1C(=O)OC`, the melting point lay within 122 to 124 °C.

`CC(C)[C@H]1CC[C@H](C(=O)N[C@H](Cc2ccc(OCCN(C)c3ccccn3)cc2)C(=O)O)CC1` displayed a melting point of 154 to 155 °C.

Consider `CCC(=C(c1ccccc1)c1ccc(C=CC(=O)O)cc1)c1ccccc1`, for which the melting point was 148 to 150 °C.

With `CCCn1nc2c(N)nc3ccccc3c2c1CC(C)(C)NC(=O)NC(C)C`, the melting point was in the range of 190 to 191 °C.

As to `O=C(O)c1cnc(N2CCN(S(=O)(=O)c3ccc4ccccc4c3)CC2)nc1`, the melting point is above 260 °C.

`C=C1N(c2cccc3ccccc23)C(=O)OC12CCN(CCC=C(c1ccc(F)cc1)c1ccc(F)cc1)CC2`: the melting point lay within 99 to 101 °C.

Compound `CC(C)(C)OC(=O)N1CC2CC(CN(CC(O)COc3ccccc3)C2)C1` (stereo not given) registered a melting point of 86 to 88 °C.

Turning to `O=C(CCc1cccc(Br)c1)c1cnc2sc3c(n12)CCCCC3`, the melting point fell in the range of 77 to 79 °C.

`NC(CC(=O)O)c1ccccc1[N+](=O)[O-]` (stereo not given) gave a melting point of 222 °C.

Consider `COc1ccc(C(O)CN2CCNC2=O)cc1OC` (stereo not given), for which the melting point turned out to be 166 °C.

`CCCNCc1nc(-c2ncn3c2[C@@H]2CCN2C(=O)c2c(Cl)cccc2-3)no1` had a melting point of 237 to 239 °C.

Take `Oc1ccc2c(c1)C13CCCCC1N(C2)NCC3` (single isomer, unassigned; (-)): the melting point lay in the range of 244 to 246 °C.

Regarding `CC(C)OCCNC(=O)c1ccn2nc(-c3ccccc3)c(-c3ccc(=O)n(C(C)C)n3)c2c1`, the melting point was 124 to 125 °C.

`O=C(OCc1ccccc1)c1cc2cc(Br)ccc2nn1` showed a melting point of 171 °C.

Consider `CC(=O)OC1N=C(c2ccccc2F)c2cc(Cl)ccc2-n2c1cnc2C` (stereo not given), for which the melting point is 201 to 202 °C.

In the case of `COc1ccc2c(c1)CN(Cc1ccccc1)CC(=O)N2`, the melting point was 134 °C.

Turning to `N=C(c1ccccc1)c1cc(F)cc(NC(=O)/C=C/c2ccccn2)c1`, the melting point is 205 to 207 °C.

With `OC(c1ccccc1)(c1ncc[nH]1)c1ccccc1Cl` (stereo not given), the melting point was in the range of 186 to 188 °C.

`CCOC(=O)C1CC(O)c2cc3c(cc2C1c1cc(OC)c(OC)c(OC)c1)OCO3` (stereo not given) came in with a melting point of 151 to 152 °C.

Compound `CCCc1c(O)c(O)c(C(=O)O)c2cc(Cc3ccccc3)c(C)cc12` had a melting point of 183 to 184 °C.

In the case of `FC(F)(F)c1ccc(OCCc2c[nH]cn2)cc1`, the melting point was in the range of 105 to 109 °C.

With `Cc1cccc2sc(NN)nc12`, the melting point was 161 to 166 °C.

In the case of `CC(C)(C)Nc1c([N+](=O)[O-])cc([N+](=O)[O-])c2nc(C(F)(F)F)[nH]c12`, the melting point was 177 to 188 °C.

Compound `CC1CCn2c(c(-c3ccccc3)c3cccnc3c2=O)C(=O)N(Cc2cc(C(F)(F)F)cc(C(F)(F)F)c2)C1` (racemic) came in with a melting point of 257 to 258 °C.

`O=C(NCC1CCCC1)c1ccc2[nH]ccc2c1` gave a melting point of 110 to 112 °C.

With `CC(C)C1(C)NC(c2nccc(O)c2C(=O)O)=NC1=O` (stereo not given), the melting point lay in the range of 210 to 211 °C.

The compound `O=C(Cc1cccnc1)c1ccc(Oc2ccccc2)cc1` came in with a melting point of 81 to 83 °C.

`CN1CCC(=C2c3ccc(F)cc3CCn3ccnc32)CC1` registered a melting point of 152 °C.

`CC(=O)SCC(Cc1ccccc1)C(=O)Nc1cc(Cl)ccc1C(=O)O` (stereo not given) showed a melting point of 143 to 144 °C.

As for `O=[N+]([O-])c1ccc(OC(F)(F)c2ccccc2)cc1`, the melting point lay within 46 to 48 °C.

As to `CN(C)S(=O)(=O)c1c(S(N)(=O)=O)ccn1C`, the melting point fell in the range of 146 to 148 °C.

In turn, `COC(=O)c1ccc(NC(=O)c2ccc(-c3ccccc3)cc2)cc1` registered a melting point of 247 to 251 °C.

`CS(=O)(=O)c1ccc(-c2cnn(-c3ccc([N+](=O)[O-])s3)c(=O)c2-c2ccc(F)cc2)cc1` registered a melting point of 252 to 253 °C.

The compound `CC(=O)N1c2ccc(-c3ccc(C(=O)O)cc3)cc2[C@H](Nc2ccc(Cl)cc2)C[C@@H]1C` had a melting point of 275 °C.

In the case of `O=C(O)c1cn(C2CC2)c2nc(O)c(F)cc2c1=O`, the melting point lay within 325 to 327 °C.

For `COC(=O)[C@H](Cc1ccc(OS(=O)(=O)c2ccc(C)cc2)cc1)NC(=O)OC(C)(C)C`, the melting point lay in the range of 78.8 to 79.5 °C.

Regarding `CC(=O)C(=NNc1ccccc1)Sc1ccc(Cl)cc1`, the melting point lay in the range of 111 to 113 °C.

`Cc1c(-c2ccc(O)cc2O)c(=O)oc2cc(O)ccc12` displayed a melting point of 282 to 283 °C.

Turning to `CCCCNC(=O)[C@@H](C[C@H](O)[C@H](CC1CCCCC1)NC(=O)OC(C)(C)C)C(C)(C)O`, the melting point lay within 91 to 93 °C.

The compound `O=C(O)C(=O)c1cc(Cl)c(OCCOc2ccc3ccccc3c2)c(Cl)c1` showed a melting point of 108 to 110 °C.

`COc1ccccc1CN[C@H]1CCCN[C@H]1c1ccc2ccccc2c1` (relative stereo) returned a melting point above 250 °C.

`Cn1c(CCOc2ccc(CC3SC(=O)NC3=O)cc2)nc2cccnc21` (stereo not given) returned a melting point of 96 to 100 °C.

Compound `COc1ccc(C(=O)N2c3ccccc3C(n3c4ccccc4c4ccccc43)CC2CCCCCN(C)C(C)=O)cc1OC` (stereo not given) had a melting point of 173 to 175 °C.

The compound `Cc1c(CO)c2ccc(OCCCN3CCN(Cc4ccc(Cl)cc4)CC3)cc2oc1=O` showed a melting point of 135 °C.

For `Cn1cc(C(=O)Nc2nc(-c3ccco3)c(C(=O)c3ccccc3)s2)ccc1=O`, the melting point was 220 to 225 °C.

With `Fc1ccc(-c2ccc3[nH]c4c(ccc5cc[nH]c54)c3c2)cc1`, the melting point is above 250 °C.

In the case of `O=c1occc2ccc(Cl)cc12`, the melting point is 110 to 111 °C.

For the compound `CC(=O)CC(=O)NC1CC(C)(C)NC(C)(C)C1`, the melting point was 115 °C.

Consider `CCn1ncnc1COc1nn2c(-c3ccccc3F)nncc2c1-c1ccco1`, for which the melting point lay within 182 to 183 °C.

For `N#Cc1c(-c2ccccc2)c(-c2ccccc2)nn(CCO)c1=O`, the melting point lay in the range of 197 to 198 °C.

In turn, `CCCc1c(OCCCCCCc2ccc3cc(OCc4ccccc4)c(OCc4ccccc4)cc3c2)ccc(C(=O)OCc2ccccc2)c1O` registered a melting point of 94 to 97 °C.

Compound `Cc1c(Nc2ccc([N+](=O)[O-])cc2C(=O)O)cccc1C(F)(F)F` came in with a melting point of 244 to 245 °C.

The compound `C#Cc1ccc2c(c1)C(Cc1ccnc(F)c1)(Cc1ccnc(F)c1)c1cccnc1-2` returned a melting point of 139 to 140 °C.

`COc1cc2c(cc1OC)C(=Cc1ccccc1[N+](=O)[O-])C(=O)CC2` came in with a melting point of 63 to 64 °C.

In turn, `CC(=O)N(CC(=O)O)C[C@H]1O[C@H](c2ccccc2Cl)c2cc(Cl)ccc2N(Cc2ccccc2)C1=O` (relative stereo) gave a melting point of 143 to 145 °C.

Regarding `CNC(=O)n1sc(Cc2ccccc2)nc1=O`, the melting point was determined as 146 °C.

Compound `O=S1CCc2nc(N3CCN(c4ccccc4)CC3)nc(Nc3cccc(Cl)c3)c21` (stereo not given) came in with a melting point of 230 to 231 °C.

As to `COc1ccccc1N1CCN(CC(C(=O)NC(C)(C)C)c2ccccn2)CC1` (stereo not given), the melting point was in the range of 138 to 139 °C.

Compound `COc1cc(NN)c(F)cc1C#N` came in with a melting point of 155 to 156 °C.

Compound `COc1cc(-c2cccc(Cl)c2)c2cc(Br)ccc2n1` gave a melting point of 124 °C.

As to `O=C(O)c1cc(OCCCOc2ccc(OCc3ccccc3)cc2)cc(OCCCOc2ccc(OCc3ccccc3)cc2)c1`, the melting point was in the range of 139 to 140 °C.

With `COCc1c(C(=O)OC(C)C)ncc2[nH]c3cccc(-c4cccnc4)c3c12`, the melting point is 187 to 188 °C.

Compound `COc1ccc(C(=O)n2c3c(c4cc(C)ccc42)CC(C(=O)O)CC3)cc1` (stereo not given) registered a melting point of 172 to 173 °C.

As for `FC(F)(F)Sc1cc[nH]c1-c1ccc(Cl)cc1`, the melting point was in the range of 59 to 64 °C.

The compound `CCc1cn(C2CC(O)(c3ccc(C)cc3)C(C(O)c3ccc(C)cc3)O2)c(=O)[nH]c1=O` (stereo not given) registered a melting point of 192 to 194 °C.

Regarding `O=C(c1cc2ccccc2s1)N1CCc2[nH]c3c(cnc4cc(Cl)ccc43)c2C1`, the melting point is above 250 °C.

Take `Cc1oc(-c2ccccc2)nc1Cc1cccc(CC2COC(C)(C)OC2)c1`: the melting point was 85 to 87 °C.

`COCCOCCOCC(=O)Nc1c(I)c(N)c(I)c(C(=O)O)c1I` came in with a melting point of 177 to 178 °C.

As for `CC(C)n1nc(Cl)cc1O`, the melting point was in the range of 138 to 140 °C.

The compound `OC(CCC(O)(C(F)(F)F)C(F)(F)F)(C(F)(F)F)C(F)(F)F` displayed a melting point of 96 to 98 °C.

Compound `COC(=O)C1=C(C)Nc2ncnc(OC(C)C)c2C1c1cccc([N+](=O)[O-])c1` (stereo not given) returned a melting point of 218 to 219 °C.

Regarding `O=C(OC1CCCCC1)c1ncn2c1[C@@H]1CCN1C(=O)c1cc(F)ccc1-2`, the melting point lay in the range of 231 to 232 °C.

`NC[C@@H]1CNc2cccc(-c3cc(Cl)ccc3Cl)c2O1` gave a melting point of 130 °C.

In the case of `CC(SC(=O)c1ccccc1)C(=O)N1c2ccccc2CCC1C(=O)O` (stereo not given), the melting point is 157 to 159 °C.

Compound `COc1ccc(-c2ccc(OC)cc2[N+](=O)[O-])cc1` yielded a melting point of 122 to 124 °C.

With `CCCCCCCCCCOc1ccc(C(=O)O[C@@H]2CC[C@H](NC(=O)[C@H](OC)[C@H](O)[C@@H](O)[C@H](O)/C=C/C(C)(C)C)C(=O)NC2)cc1`, the melting point lay within 70 to 74 °C.

For the compound `Cc1[nH]n(C2CCCC2C)c2nc(-c3ccncc3)nc(=O)c1-2` (stereo not given), the melting point was 290 to 291 °C.

Turning to `CCOCc1nc2cnc(C)c(C)c2n1NC1CCOCC1`, the melting point was in the range of 94 to 97 °C.

As for `CCN(C(=O)c1ccccc1C(c1ccc(O)cc1)c1ccc(O)cc1)c1cccc(C)c1`, the melting point was 218 to 220 °C.

In turn, `CC(C)c1cccc(C(C)C)c1NC(=O)N(Cc1ccc(N(C)C)cc1)c1ccc(Br)cc1` came in with a melting point of 165 to 166 °C.

For `CCNC(=O)Nc1nc2nc(NCCCN(C)C)ncc2cc1-c1c(C)cccc1C`, the melting point lay within 64 to 70 °C.

For `C=CCOc1cc(NC(=O)C2CCCCC2C(=O)OCC)c(F)cc1Cl` (stereo not given), the melting point was 52 to 53 °C.

`CC(C)c1nsc(N=C(Br)N(C)C)c1C#N` registered a melting point of 92 to 96 °C.

`CCn1c(=O)c2c(nc(/C=C/c3ccc(OCCCCN=[N+]=[N-])cc3)n2C)n(CC)c1=O`: the melting point was 158 to 159 °C.

As a reminder, the melting point is the temperature, or range, at which the solid turns liquid.
